Laboratory results as given in PubChem BioAssay AID1963848 (Molecular Pharmacology Branch, DTP, NCI, 2024).
pIC50: −log10 of the molar value.

Tested on: 379773-124-R-J2-PDC spheroid viability
Experiment: Anticancer human tumor 379773-124-R-J2-PDC patient-derived endometrial carcinoma cell line growth inhibition [POLQ]
Settings: spheroids with HUVEC and MSC; for pIC50: curve of first compound; for viability, T/C: stronger effect = lower value
Procedure, shortened: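 PDC + HUVEC + MSC complex spheroids; POLQ inhibitors ± partner drugs; top conc. at/near clinical Cmax, else 10 microM (SN-38 1 microM), half-log dilutions; 37 degrees C, 5% CO2.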

[1] = second compound 0.0316 µM, first compound 0.0316 µM
[2] = second compound 0.0316 µM, first compound 0.1 µM
[3] = second compound 0.0316 µM, first compound 0.316 µM
[4] = second compound 0.0316 µM, first compound 1 µM
[5] = second compound 0.0316 µM, first compound 3.16 µM
[6] = second compound 0.0316 µM, first compound 10 µM
[7] = second compound 0.1 µM, first compound 0.0316 µM
[8] = second compound 0.1 µM, first compound 0.1 µM
[9] = second compound 0.1 µM, first compound 0.316 µM
[10] = second compound 0.1 µM, first compound 1 µM
[11] = second compound 0.1 µM, first compound 3.16 µM
[12] = second compound 0.1 µM, first compound 10 µM
[13] = second compound 0.316 µM, first compound 0.0316 µM
[14] = second compound 0.316 µM, first compound 0.1 µM
[15] = second compound 0.316 µM, first compound 0.316 µM
[16] = second compound 0.316 µM, first compound 1 µM
[17] = second compound 0.316 µM, first compound 3.16 µM
[18] = second compound 0.316 µM, first compound 10 µM
[19] = second compound 1 µM, first compound 0.0316 µM
[20] = second compound 1 µM, first compound 0.1 µM
[21] = second compound 1 µM, first compound 0.316 µM
[22] = second compound 1 µM, first compound 1 µM
[23] = second compound 1 µM, first compound 3.16 µM
[24] = second compound 1 µM, first compound 10 µM
[25] = second compound 3.16 µM, first compound 0.0316 µM
[26] = second compound 3.16 µM, first compound 0.1 µM
[27] = second compound 3.16 µM, first compound 0.316 µM
[28] = second compound 3.16 µM, first compound 1 µM
[29] = second compound 3.16 µM, first compound 3.16 µM
[30] = second compound 3.16 µM, first compound 10 µM
[31] = second compound 10 µM, first compound 0.0316 µM
[32] = second compound 10 µM, first compound 0.1 µM
[33] = second compound 10 µM, first compound 0.316 µM
[34] = second compound 10 µM, first compound 1 µM
[35] = second compound 10 µM, first compound 3.16 µM
[36] = second compound 10 µM, first compound 10 µM
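Further: spheroids exposed to drugs for seven days before readout.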
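Wherever viability, T/C is given: percent viability relative to DMSO vehicle control taken as 100%.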

SMILES: CCc1cc2c(N3CCc4c(cc(Cn5ccnc5)cc4-c4cn(C)nc4C(F)(F)F)C3=O)cc(C)nc2c(OC)n1 + Cc1cccc(N(C)C(=O)C2C(O)CCN2c2nc(C)cc(C(F)(F)F)c2C#N)c1
- pIC50 (second compound 0.0316 µM): < 5.00
- pIC50 (second compound 0.1 µM): < 5.00
- pIC50 (second compound 0.316 µM): < 5.00
- pIC50 (second compound 1 µM): 5.05
- pIC50 (second compound 3.16 µM): 5.17
- pIC50 (second compound 10 µM): 5.71
- viability, T/C [1]: 77.2%
- viability, T/C [2]: 80%
- viability, T/C [3]: 61.9%
- viability, T/C [4]: 62.4%
- viability, T/C [5]: 64%
- viability, T/C [6]: 48.9%
- viability, T/C [7]: 92.7%
- viability, T/C [8]: 69.5%
- viability, T/C [9]: 56.1%
- viability, T/C [10]: 58.4%
- viability, T/C [11]: 55.4%
- viability, T/C [12]: 46.9%
- viability, T/C [13]: 78.9%
- viability, T/C [14]: 72.9%
- viability, T/C [15]: 67.8%
- viability, T/C [16]: 59.4%
- viability, T/C [17]: 60.8%
- viability, T/C [18]: 51.4%
- viability, T/C [19]: 77.3%
- viability, T/C [20]: 68.2%
- viability, T/C [21]: 68.1%
- viability, T/C [22]: 59%
- viability, T/C [23]: 62.4%
- viability, T/C [24]: 46.6%
- viability, T/C [25]: 76.4%
- viability, T/C [26]: 73.6%
- viability, T/C [27]: 61%
- viability, T/C [28]: 53.9%
- viability, T/C [29]: 51.9%
- viability, T/C [30]: 48.1%
- viability, T/C [31]: 70.7%
- viability, T/C [32]: 64%
- viability, T/C [33]: 61.5%
- viability, T/C [34]: 49.2%
- viability, T/C [35]: 50.9%
- viability, T/C [36]: 41.2%

SMILES: CCc1cc2c(N3CCc4c(cc(Cn5ccnc5)cc4-c4cn(C)nc4C(F)(F)F)C3=O)ccnc2c(OC)n1 + Cc1cccc(N(C)C(=O)C2C(O)CCN2c2nc(C)cc(C(F)(F)F)c2C#N)c1
- pIC50 (second compound 0.0316 µM): < 5.00
- pIC50 (second compound 0.1 µM): < 5.00
- pIC50 (second compound 0.316 µM): < 5.00
- pIC50 (second compound 1 µM): < 5.00
- pIC50 (second compound 3.16 µM): < 5.00
- pIC50 (second compound 10 µM): 5.43
- viability, T/C [1]: 76.1%
- viability, T/C [2]: 68.8%
- viability, T/C [3]: 73%
- viability, T/C [4]: 63.2%
- viability, T/C [5]: 59.1%
- viability, T/C [6]: 54.5%
- viability, T/C [7]: 81.9%
- viability, T/C [8]: 71.1%
- viability, T/C [9]: 64.3%
- viability, T/C [10]: 69.6%
- viability, T/C [11]: 55.2%
- viability, T/C [12]: 50%
- viability, T/C [13]: 71.9%
- viability, T/C [14]: 85.3%
- viability, T/C [15]: 70.2%
- viability, T/C [16]: 64.8%
- viability, T/C [17]: 55.5%
- viability, T/C [18]: 53%
- viability, T/C [19]: 83.6%
- viability, T/C [20]: 68.9%
- viability, T/C [21]: 65%
- viability, T/C [22]: 63.7%
- viability, T/C [23]: 55.9%
- viability, T/C [24]: 50.2%
- viability, T/C [25]: 73.5%
- viability, T/C [26]: 80.8%
- viability, T/C [27]: 60.9%
- viability, T/C [28]: 65.2%
- viability, T/C [29]: 58.8%
- viability, T/C [30]: 55.7%
- viability, T/C [31]: 69.6%
- viability, T/C [32]: 68.2%
- viability, T/C [33]: 62%
- viability, T/C [34]: 57.9%
- viability, T/C [35]: 50.1%
- viability, T/C [36]: 44.2%

SMILES: COc1cc2cc(C(=O)CCC(=O)O)sc2cc1OC + Cc1cccc(N(C)C(=O)C2C(O)CCN2c2nc(C)cc(C(F)(F)F)c2C#N)c1
- pIC50 (second compound 0.0316 µM): < 5.00
- pIC50 (second compound 0.1 µM): < 5.00
- pIC50 (second compound 0.316 µM): < 5.00
- pIC50 (second compound 1 µM): < 5.00
- pIC50 (second compound 3.16 µM): < 5.00
- pIC50 (second compound 10 µM): < 5.00
- viability, T/C [1]: 90.8%
- viability, T/C [2]: 100%
- viability, T/C [3]: 86.1%
- viability, T/C [4]: 89.3%
- viability, T/C [5]: 89.2%
- viability, T/C [6]: 102%
- viability, T/C [7]: 96.3%
- viability, T/C [8]: 89.2%
- viability, T/C [9]: 85.3%
- viability, T/C [10]: 96.9%
- viability, T/C [11]: 105%
- viability, T/C [12]: 91.2%
- viability, T/C [13]: 102%
- viability, T/C [14]: 88.5%
- viability, T/C [15]: 85.2%
- viability, T/C [16]: 90.1%
- viability, T/C [17]: 85.8%
- viability, T/C [18]: 89%
- viability, T/C [19]: 88.5%
- viability, T/C [20]: 103%
- viability, T/C [21]: 96.3%
- viability, T/C [22]: 100%
- viability, T/C [23]: 102%
- viability, T/C [24]: 88.1%
- viability, T/C [25]: 101%
- viability, T/C [26]: 83.7%
- viability, T/C [27]: 103%
- viability, T/C [28]: 100%
- viability, T/C [29]: 87.7%
- viability, T/C [30]: 95.1%
- viability, T/C [31]: 94.5%
- viability, T/C [32]: 84.6%
- viability, T/C [33]: 89.7%
- viability, T/C [34]: 89.9%
- viability, T/C [35]: 103%
- viability, T/C [36]: 85.3%

SMILES: COc1ccc([C@@H](O)c2cc(-c3ncnc4cc(N5CCOCC5)ccc34)c(F)cc2Cl)nn1 + Cc1cccc(N(C)C(=O)C2C(O)CCN2c2nc(C)cc(C(F)(F)F)c2C#N)c1
- pIC50 (second compound 0.0316 µM): 5.20
- pIC50 (second compound 0.1 µM): 5.23
- pIC50 (second compound 0.316 µM): 5.15
- pIC50 (second compound 1 µM): 5.17
- pIC50 (second compound 3.16 µM): 5.17
- pIC50 (second compound 10 µM): 5.21
- viability, T/C [1]: 81.3%
- viability, T/C [2]: 83.6%
- viability, T/C [3]: 94.3%
- viability, T/C [4]: 96.3%
- viability, T/C [5]: 75%
- viability, T/C [6]: 33.5%
- viability, T/C [7]: 87%
- viability, T/C [8]: 89.6%
- viability, T/C [9]: 92%
- viability, T/C [10]: 87.1%
- viability, T/C [11]: 64.1%
- viability, T/C [12]: 37.9%
- viability, T/C [13]: 81.5%
- viability, T/C [14]: 82.1%
- viability, T/C [15]: 101%
- viability, T/C [16]: 82.4%
- viability, T/C [17]: 73%
- viability, T/C [18]: 39.8%
- viability, T/C [19]: 97.2%
- viability, T/C [20]: 85.4%
- viability, T/C [21]: 92%
- viability, T/C [22]: 81.8%
- viability, T/C [23]: 83.8%
- viability, T/C [24]: 33.4%
- viability, T/C [25]: 87.3%
- viability, T/C [26]: 85.5%
- viability, T/C [27]: 96.7%
- viability, T/C [28]: 74.8%
- viability, T/C [29]: 81.6%
- viability, T/C [30]: 35%
- viability, T/C [31]: 74.8%
- viability, T/C [32]: 78.5%
- viability, T/C [33]: 85.2%
- viability, T/C [34]: 80%
- viability, T/C [35]: 82.2%
- viability, T/C [36]: 28.4%
